Measurements taken from patent US6737383B1, “Herbicidal oxadiazolidines” (priority 1999, dated 2004).

Experiments:
bamyardgrass = test: Test B flood test barnyardgrass; type: in vivo, Echinochloa crus-galli
Summary of the method: (§1)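 Read-out is a visual response score from 0 (no effect) to 10 (complete control), assigned by comparison with untreated controls. Treatment was applied at the 2-leaf stage, and plants stayed in the greenhouse for twelve to sixteen days before scoring.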

sugar beet = test: Test B pre/postemergence sugar beet; type: in vivo, Beta vulgaris
Summary of the method: (§2)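 Herbicidal effect was estimated by eye on a ten-point control scale after plants spent twelve to sixteen days in a greenhouse following soil or foliar treatment. Foliar sprays targeted plants at one to four leaves; all doses were formulated in a non-phytotoxic solvent with surfactant.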

smallflower flatsedge = test: Test B flood test smallflower flatsedge; type: in vivo, Cyperus difformis
Summary of the method: as §1

bedstraw = test: Test B pre/postemergence bedstraw; type: in vivo, Galium aparine
Summary of the method: as §2

rape = test: Test B pre/postemergence rape; type: in vivo, Brassica napus
Summary of the method: as §2

rice = test: Test B flood test rice; type: in vivo, Oryza sativa
Summary of the method: as §1

crabgrass = test: Test B pre/postemergence crabgrass; type: in vivo, Digitaria sanguinalis
Summary of the method: as §2

wheat = test: Test B pre/postemergence wheat; type: in vivo, Triticum aestivum
Summary of the method: as §2

morningglory = test: Test B pre/postemergence morningglory; type: in vivo, Ipomoea hederacea
Summary of the method: as §2

corn = test: Test B pre/postemergence corn; type: in vivo, Zea mays
Summary of the method: as §2

blackgrass = test: Test B pre/postemergence blackgrass; type: in vivo, Alopecurus myosuroides
Summary of the method: as §2

pigweed = test: Test B pre/postemergence pigweed; type: in vivo, Amaranthus retroflexus
Summary of the method: as §2

giant foxtail = test: Test B pre/postemergence giant foxtail; type: in vivo, Setaria faberii
Summary of the method: as §2

wild oat = test: Test B pre/postemergence wild oat; type: in vivo, Avena fatua
Summary of the method: as §2

purple nutsedge = test: Test B pre/postemergence purple nutsedge; type: in vivo, Cyperus rotundus
Summary of the method: as §2

surinam grass = test: Test B pre/postemergence surinam grass; type: in vivo, Brachiaria decumbens
Summary of the method: as §2

[1] = Rate 62 g/ha, headed Pre-emergence (flood test species), scale 0 to 10 (0 no effect, 10 complete control)
[2] = Rate 125 g/ha, Pre-emergence, flood test species, scale 0 to 10 where 0 is no effect and 10 is complete control
[3] = Rate 250 g/ha, Pre-emergence, flood-test species, scale 0 to 10, 0 is no effect, 10 is complete control
[4] = Rate 500 g/ha, headed Pre-emergence (flood test species), scale 0 to 10 (0 no effect, 10 complete control)
[5] = Preemergence, Rate 62 g/ha, scale of 0 to 10 where 0 is no effect and 10 is complete control
[6] = Preemergence, Rate 125 g/ha, 0 is no effect, 10 is complete control
[7] = Preemergence, Rate 250 g/ha, scale 0 to 10, 0 is no effect, 10 is complete control
[8] = Preemergence, Rate 500 g/ha, scale 0 to 10 (0 no effect, 10 complete control)
[9] = Rate 62 g/ha, Postemergence, scale of 0 to 10 where 0 is no effect and 10 is complete control
[10] = Rate 125 g/ha, Postemergence, scale 0 to 10
[11] = Rate 500 g/ha, Postemergence, scale 0 to 10

COc1nc(OC)nc(N(C(=O)n2oc(=O)n(-c3ccccc3C)c2=O)C(C)C)n1 [Compound 181]
0: Barnyardgrass plant response rating (bamyardgrass; [1]) | Barnyardgrass plant response rating (bamyardgrass; [2]) | Barnyardgrass plant response rating (bamyardgrass; [3]) | Plant response rating, Barnyardgrass (bamyardgrass; [4]) | Sugarbeets plant response rating (sugar beet; [5]) | Sugarbeets plant response rating (0 to 10 scale) (sugar beet; [6]) | Sugarbeets plant response rating (sugar beet; [7]) | Sugarbeets plant response rating (sugar beet; [8]) | Sugarbeets plant response rating (sugar beet; [9]) | Sugarbeets plant response rating (sugar beet; [10]) | Plant response rating (0 to 10; 0 is no effect, 10 is complete control), Sugarbeets (sugar beet; Rate 250 g/ha, Postemergence) | Sugarbeets plant response rating (sugar beet; [11]) | S. Flatsedge plant response rating (smallflower flatsedge; [1]) | S. Flatsedge plant response rating (smallflower flatsedge; [2]) | S. Flatsedge plant response rating (smallflower flatsedge; [3]) | S. Flatsedge plant response rating (smallflower flatsedge; Rate 500 g/ha, Pre-emergence, flood test species, scale 0 to 10 (0 no effect, 10 complete control)) | Bedstraw plant response rating (bedstraw; [5]) | Bedstraw plant response rating (0 to 10 scale) (bedstraw; [6]) | Bedstraw plant response rating (bedstraw; [7]) | Bedstraw plant response rating (bedstraw; [9]) | Bedstraw plant response rating (bedstraw; [10]) | Plant response rating (0 to 10; 0 is no effect, 10 is complete control), Bedstraw (bedstraw; Rate 250 g/ha, Postemergence) | Bedstraw plant response rating (bedstraw; [11]) | Rape plant response rating (rape; [5]) | Rape plant response rating (0 to 10 scale) (rape; [6]) | Rape plant response rating (rape; [7]) | Rape plant response rating (rape; [8]) | Rape plant response rating (rape; [9]) | Rape plant response rating (rape; [10]) | Plant response rating (0 to 10; 0 is no effect, 10 is complete control), Rape (rape; Rate 250 g/ha, Postemergence) | Rape plant response rating (rape; [11]) | Rice plant response rating (rice; [1]) | Rice plant response rating (rice; [2]) | Rice plant response rating (rice; [3]) | Plant response rating, Rice (rice; [4]) | Crabgrass plant response rating (crabgrass; [5]) | Crabgrass plant response rating (0 to 10 scale) (crabgrass; [6]) | Crabgrass plant response rating (crabgrass; [7]) | Crabgrass plant response rating (crabgrass; [8]) | Crabgrass plant response rating (crabgrass; [9]) | Crabgrass plant response rating (crabgrass; [10]) | Plant response rating (0 to 10; 0 is no effect, 10 is complete control), Crabgrass (crabgrass; Rate 250 g/ha, Postemergence) | Crabgrass plant response rating (crabgrass; [11]) | Wheat plant response rating (wheat; [5]) | Wheat plant response rating (wheat; [7]) | Wheat plant response rating (wheat; [8]) | Wheat plant response rating (wheat; [10]) | Plant response rating (0 to 10; 0 is no effect, 10 is complete control), Wheat (wheat; Rate 250 g/ha, Postemergence) | Wheat plant response rating (wheat; [11]) | Morningglory plant response rating (morningglory; [5]) | Morningglory plant response rating (0 to 10 scale) (morningglory; [6]) | Morningglory plant response rating (morningglory; [7]) | Morningglory plant response rating (morningglory; [8]) | Morningglory plant response rating (morningglory; [9]) | Morningglory plant response rating (morningglory; [10]) | Plant response rating (0 to 10; 0 is no effect, 10 is complete control), Morningglory (morningglory; Rate 250 g/ha, Postemergence) | Morningglory plant response rating (morningglory; [11]) | Corn plant response rating (corn; [5]) | Corn plant response rating (0 to 10 scale) (corn; [6]) | Corn plant response rating (corn; [7]) | Corn plant response rating (corn; [8]) | Corn plant response rating (corn; [9]) | Corn plant response rating (corn; [10]) | Plant response rating (0 to 10; 0 is no effect, 10 is complete control), Corn (corn; Rate 250 g/ha, Postemergence) | Corn plant response rating (corn; [11]) | Blackgrass plant response rating (blackgrass; [5]) | Blackgrass plant response rating (0 to 10 scale) (blackgrass; [6]) | Blackgrass plant response rating (blackgrass; [7]) | Blackgrass plant response rating (blackgrass; [8]) | Blackgrass plant response rating (blackgrass; [9]) | Blackgrass plant response rating (blackgrass; [10]) | Plant response rating (0 to 10; 0 is no effect, 10 is complete control), Blackgrass (blackgrass; Rate 250 g/ha, Postemergence) | Blackgrass plant response rating (blackgrass; [11]) | Redroot pigweed plant response rating (pigweed; [5]) | Redroot pigweed plant response rating (0 to 10 scale) (pigweed; [6]) | Redroot pigweed plant response rating (pigweed; [7]) | Redroot pigweed plant response rating (pigweed; [8]) | Redroot pigweed plant response rating (pigweed; [9]) | Redroot pigweed plant response rating (pigweed; [10]) | Plant response rating (0 to 10; 0 is no effect, 10 is complete control), Redroot pigweed (pigweed; Rate 250 g/ha, Postemergence) | Redroot pigweed plant response rating (pigweed; [11]) | Giant foxtail plant response rating (giant foxtail; [5]) | Giant foxtail plant response rating (0 to 10 scale) (giant foxtail; [6]) | Giant foxtail plant response rating (giant foxtail; [7]) | Giant foxtail plant response rating (giant foxtail; [8]) | Giant foxtail plant response rating (giant foxtail; [9]) | Giant foxtail plant response rating (giant foxtail; [10]) | Plant response rating (0 to 10; 0 is no effect, 10 is complete control), Giant foxtail (giant foxtail; Rate 250 g/ha, Postemergence) | Giant foxtail plant response rating (giant foxtail; [11]) | Wild oats plant response rating (wild oat; [5]) | Wild oats plant response rating (wild oat; [7]) | Wild oats plant response rating (wild oat; [8]) | Wild oats plant response rating (wild oat; [10]) | Plant response rating (0 to 10; 0 is no effect, 10 is complete control), Wild oats (wild oat; Rate 250 g/ha, Postemergence) | Wild oats plant response rating (wild oat; [11]) | Nutsedge plant response rating (purple nutsedge; [5]) | Nutsedge plant response rating (0 to 10 scale) (purple nutsedge; [6]) | Nutsedge plant response rating (purple nutsedge; [7]) | Nutsedge plant response rating (purple nutsedge; [8]) | Nutsedge plant response rating (purple nutsedge; [9]) | Nutsedge plant response rating (purple nutsedge; [10]) | Plant response rating (0 to 10; 0 is no effect, 10 is complete control), Nutsedge (purple nutsedge; Rate 250 g/ha, Postemergence) | Nutsedge plant response rating (purple nutsedge; [11]) | B. signalgrass plant response rating (surinam grass; [5]) | B. signalgrass plant response rating (0 to 10 scale) (surinam grass; [6]) | B. signalgrass plant response rating (surinam grass; [7]) | B. signalgrass plant response rating (surinam grass; [8]) | B. signalgrass plant response rating (surinam grass; [9]) | B. signalgrass plant response rating (surinam grass; Rate 125 g/ha, Postemergence, scale 0 (no effect) to 10 (complete control)) | Plant response rating, B. signalgrass (surinam grass; Rate 250 g/ha, Postemergence, scale 0 to 10, 0 is no effect, 10 is complete control) | B. signalgrass plant response rating (surinam grass; Rate 500 g/ha, Postemergence, scale 0 to 10, 0 no effect, 10 complete control)
